Broadly, the pIC50 is the negative decadic logarithm of the IC50, by convention in mol/L. Read a low pIC50 as a large IC50.

The structures appear in SMILES notation. pIC50: −log10 of the molar value.

This assay concerns the target T1, purified human 15-lipoxygenase (Homo sapiens, UniProt P16050).
T1 sequence (P16050 1-662): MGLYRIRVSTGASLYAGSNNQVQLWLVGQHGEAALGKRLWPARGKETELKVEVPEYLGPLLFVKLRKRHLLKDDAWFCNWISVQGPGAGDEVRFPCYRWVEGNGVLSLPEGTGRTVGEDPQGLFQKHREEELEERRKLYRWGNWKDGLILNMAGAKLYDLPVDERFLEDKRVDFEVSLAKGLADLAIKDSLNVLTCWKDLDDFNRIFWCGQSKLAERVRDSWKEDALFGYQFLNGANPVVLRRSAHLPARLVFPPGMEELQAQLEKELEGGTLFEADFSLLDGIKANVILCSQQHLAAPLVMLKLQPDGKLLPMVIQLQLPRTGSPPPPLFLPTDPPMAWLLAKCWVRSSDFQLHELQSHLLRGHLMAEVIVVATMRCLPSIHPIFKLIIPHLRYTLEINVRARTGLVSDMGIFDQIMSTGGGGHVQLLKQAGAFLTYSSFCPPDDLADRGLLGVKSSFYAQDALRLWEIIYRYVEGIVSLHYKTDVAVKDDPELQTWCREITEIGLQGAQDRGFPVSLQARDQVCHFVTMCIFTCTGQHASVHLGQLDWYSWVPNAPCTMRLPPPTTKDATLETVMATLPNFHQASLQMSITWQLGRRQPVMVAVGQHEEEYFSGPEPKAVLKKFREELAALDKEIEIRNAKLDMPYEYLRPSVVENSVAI
Kind of assay: 15-lipoxygenase inhibition assay (oxidation of arachidonic acid, product measured by reverse phase HPLC). Conditions: arachidonic acid substrate, room temperature, PBS pH 7.4. It counts as biochemical. On the procedure: The assay employed takes advantage of the ability of lipoxygenases to oxidize polyunsaturated fatty acids, containing a 1,4-cis-pentadiene configuration, to their corresponding hydroperoxy or hydroxyl derivatives. In this particular assay, the lipoxygenase was a purified human 15-lipoxygenase and the fatty acid was arachidonic acid. The assay is performed at room temperature (20-22° C.) and the following are added to each well in a 96-well microliter plate:
a) 35 μL phosphate buffered saline (PBS) (pH 7.4);
b) inhibitor (i.e. compound) or vehicle (0.5 μl DMSO);
c) 10 μL of a 10× concentrated solution of 15-lipoxygenase in PBS. The plates are incubated for 5 minutes at room temperature;
The plate is then incubated for 10 minutes at room temperature;
e) the enzymatic reaction is terminated by the addition of 100 μl methanol; and
f) the amount of 15-hydroperoxy-eicosatetraenoic acid or 15-hydroxyeicosatetraenoic acid is measured by reverse phase HPLC.

As to `Cc1cn(C(=O)NCCc2cccs2)nc1C(=O)Nc1ccc(F)cc1Cl` [Example 4, 4-Methylpyrazole-1,3-dicarboxylic acid 3-[(2-chloro-4-fluorophenyl)-amide] 1-[(2-thien-2-ylethyl)amide]], the negative logarithm of the IC50 (pIC50) is 5.43.

Consider `CCOC(=O)CNC(=O)n1cc(C)c(C(=O)Nc2ccc(F)cc2Cl)n1` [Example 17, {[3-(2-Chloro-4-fluorophenylcarbamoyl)-4-methylpyrazole-1-carbonyl]-amino}acetic acid ethyl ester], for which the pIC50 was 5.07.

For `Cc1cc(C(=O)Nc2ccc(F)cc2Cl)nn1C(=O)NCCc1cccs1` [Example 30, 5-Methylpyrazole-1,3-dicarboxylic acid 3-[(2-chloro-4-fluorophenyl)-amide] 1-[(2-thien-2-ylethyl)-amide]], the pIC50 was 6.15.

As to `CCOC(=O)CNC(=O)n1nc(C(=O)Nc2ccc(F)cc2Cl)cc1C` [Example 31, {[3-(2-Chloro-4-fluorophenylcarbamoyl)-5-Methylpyrazole-1-carbonyl]-amino}-acetic acid ethyl ester], the negative-log IC50 (pIC50) was 6.20.

For the molecule `Cc1cc(C(=O)Nc2ccc(F)cc2Cl)nn1C(=O)NC1CCN(C(=O)OCc2ccccc2)CC1` [Example 32, 4-{[3-(2-Chloro-4-fluorophenylcarbamoyl)-5-methylpyrazole-1-carbonyl]amino}-piperidine-1-carboxylic acid benzyl ester], the negative-log IC50 (pIC50) was 6.18.

Consider `C=CCNC(=O)n1nc(C(=O)Nc2ccc(F)cc2Cl)cc1C` [Example 33, 5-Methylpyrazole-1,3-dicarboxylic acid 1-allylamide 3-[(2-chloro-4-fluorophenyl)amide]], for which the pIC50 was 5.25.

The molecule `CCCCOc1ccc(S(=O)(=O)n2nc(C(=O)Nc3ccc(F)cc3Cl)cc2C)cc1` [Example 50, 1-(4-Butoxy-benzenesulfonyl)-5-methylpyrazole-3-carboxylic acid (2-chloro-4-fluorophenyl)amide] showed a pIC50 of 5.08.

In turn, `COc1ccc(S(=O)(=O)n2nc(C(=O)Nc3ccc(F)cc3Cl)cc2C)cc1` [Example 51, 1-(4-Methoxy-benzenesulfonyl)-5-methylpyrazole-3-carboxylic acid (2-chloro-4-fluorophenyl)amide] had a pIC50 of 5.23.

The values are drawn from patent publication US20080090836A1, “Pyrazole Compounds Useful In The Treatment Of Inflammation” (priority 2004, published 2008).
